Laboratory results from PubChem BioAssay (NCI).
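Results reflect a 48-hour exposure of cells in 96-well plates to compound at five concentrations. GI50 is the concentration that inhibits growth by half. Definition used: TGI = concentration required for complete inhibition of growth.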 Where a SMILES comes first, the peptide text is derived from it. [ ]: non-standard residue; d: D form. The star is where a group is joined. X28 = COC1=CC(=O)N(C(=O)[C@@H](O*)C(C)C)[C@H]1Cc1ccccc1; Bn2Val = CC(C)[C@@H](C(=O)*)N(Cc1ccccc1)Cc1ccccc1; NMeV = CN[C@H](C(=O)O)C(C)C; dNMeA = CN[C@H](C)C(=O)O

Columns and labels:
Experiment in all cases: NCI-60 cell line screen, 48 h
SK-MEL-5 melanoma = system: SK-MEL-5 melanoma
SF-268 CNS = system: SF-268 CNS
KM12 colon = system: KM12 colon
SK-OV-3 ovarian = system: SK-OV-3 ovarian
SNB-75 CNS = system: SNB-75 CNS
NCI-H23 lung = system: NCI-H23 lung
NCI-H460 lung = system: NCI-H460 lung
TK-10 renal = system: TK-10 renal
IGROV1 ovarian = system: IGROV1 ovarian
RPMI-8226 leukemia = system: RPMI-8226 leukemia

Row | SMILES | TGI (SK-MEL-5 melanoma) [µM] | TGI (SF-268 CNS) [µM] | TGI (KM12 colon) [µM] | TGI (SK-OV-3 ovarian) [µM] | TGI (SNB-75 CNS) [µM] | TGI (NCI-H23 lung) [µM] | TGI (NCI-H460 lung) [µM] | TGI (TK-10 renal) [µM] | TGI (IGROV1 ovarian) [µM] | TGI (RPMI-8226 leukemia) [µM] | GI50 (SK-MEL-5 melanoma) [µM] | GI50 (SF-268 CNS) [µM] | GI50 (KM12 colon) [µM] | GI50 (SK-OV-3 ovarian) [µM] | GI50 (SNB-75 CNS) [µM] | GI50 (NCI-H23 lung) [µM] | GI50 (NCI-H460 lung) [µM] | GI50 (TK-10 renal) [µM] | GI50 (IGROV1 ovarian) [µM] | GI50 (RPMI-8226 leukemia) [µM]
1 | Nc1nc2c(c(-c3ccccc3Cl)n1)COC/C2=C\c1ccccc1Cl | 31.7 | 34.3 | 41.8 | 30 | 35.3 | 34.8 | 39 | 31.9 | 34 | 35.2 |  |  |  |  |  |  |  |  |  | 
2 | COc1cc(NS(C)(=O)=O)ccc1NCc1cnc2ccc3[nH]cccc3c12 | 25.2 | 55.3 | 37.6 | 48 | 39.3 | 55 | 42.1 | > 81.8 | > 100 | 29.8 |  |  |  |  |  |  |  |  |  | 
3 | N#CCCN(CCC#N)c1ccc(/C=C2\SC(=S)NC2=O)cc1 | > 100 | > 100 | > 100 | > 100 | > 100 | > 100 | > 100 | > 100 | > 100 | > 100 |  |  |  |  |  |  |  |  |  | 
4 | O=C(NNS(=O)(=O)c1ccc(Br)cc1)c1ccc(Cl)cc1NC(=O)C12CC3CC(CC(C3)C1)C2 | 23.2 | 24.9 | 85.7 | 30.3 | 28 | 28.2 | 23.4 | 33.2 | 24.7 | 24 |  |  |  |  |  |  |  |  |  | 
5 | CC(C(=O)NCCNC(=O)CCC(=O)N(C)O)C(=O)NCCNC(=O)CCC(=O)N(C)O | > 100 | > 100 | > 100 | > 100 | > 100 | > 100 | > 100 | > 100 | > 100 | > 100 |  |  |  |  |  |  |  |  |  | 
6 | Nc1ncnc2c1ncn2C1OC(CO)C(O)C1NS(=O)(=O)c1ccccc1 (stereo not drawn) | > 100 | > 100 | > 100 | > 100 | > 100 | > 100 | > 100 | > 100 | > 100 | > 100 |  |  |  |  |  |  |  |  |  | 
7 | O=C(/C=C/c1ccc2c(c1)OCO2)NCCc1ccco1 | > 100 | > 100 | > 100 | > 100 | > 100 | > 100 | > 100 | > 100 | > 100 | 99.1 |  |  |  |  |  |  |  |  |  | 
8 | NC(=S)Nc1ccc2c(c1)oc1ccccc12 | > 100 | > 100 | > 100 | > 100 | > 100 | > 100 | > 100 | > 100 | > 100 | > 100 |  |  |  |  |  |  |  |  |  | 
9 | COc1cc(OCc2nc3cc(C(F)(F)F)ccc3nc2-c2ccccc2)cc(OC)c1OC | > 100 | > 100 | > 100 | > 100 | > 100 | > 100 | > 100 | > 100 | > 100 | > 100 |  |  |  |  |  |  |  |  |  | 
10 | Cc1nc2ccccc2c(=O)n1NC(=O)c1ccccc1[N+](=O)[O-] | > 100 | > 100 | > 100 | > 100 | > 100 | > 100 | > 100 | > 100 | > 100 | > 100 |  |  |  |  |  |  |  |  |  | 
11 | O=C1CCCCC/C1=C\c1cccc([N+](=O)[O-])c1 | 40.4 | 40.6 | 56.1 | > 100 | > 100 |  | 67.9 | 97.2 | 50.4 | 78.1 |  |  |  |  |  |  |  |  |  | 
12 | Cc1ccc(S(=O)(=O)/N=C2/N(C)CCCS2(=O)=O)cc1 | > 100 | > 100 | > 100 | > 100 | > 100 | > 100 | > 100 | > 100 | > 100 | > 100 |  |  |  |  |  |  |  |  |  | 
13 | O=S(c1ccccc1)C1CC2CC3(CCC21O)OCCO3 (stereo not drawn) | > 100 | > 100 | > 100 | > 100 | > 100 | > 100 | > 100 | > 100 | > 100 | > 100 |  |  |  |  |  |  |  |  |  | 
14 | COC1=CC(=O)N(C(=O)[C@@H](OC(=O)[C@@H](C)N(C)C(=O)[C@@H]2CCCN2C(=O)[C@H](C(C)C)N(C)C(=O)[C@@H](NC(=O)[C@H](C(C)C)N(Cc2ccccc2)Cc2ccccc2)C(C)C)C(C)C)[C@H]1Cc1ccccc1 (Bn2Val-V[NMeV]P[dNMeA]-X28) | > 100 | > 100 | > 100 | > 100 | > 54.8 |  | > 100 | > 100 | > 100 | > 100 |  |  |  |  |  |  |  |  |  | 
15 | C=CCNc1nc(O)c(/C=C2\C=Nc3ncccc32)s1 | > 100 | 6.92 | 8.23 | 8.66 | 2.96 | 6.28 | 9.96 | 16.8 | > 100 | 6.71 | 2.86 | 2.1 | 2.51 | 2.21 | 1.51 | 1.93 | 2.74 | 2.18 | 2.86 | 2.26
16 | COc1ccc(C(=O)c2c(-c3ccccc3NC(=O)C(F)(F)F)[nH]c3ccccc23)cc1 | 22 | 28.7 | 21.8 | 32.7 | 7.89 | 25.7 | 16.4 | 24.9 | 24.3 | 27.2 |  |  |  |  |  |  |  |  |  | 
17 | COc1ccc(C2S/C(=C\c3cccc(OC)c3)C(=O)N2NC(=O)Cc2ccccc2)cc1 (stereo not drawn) | > 100 | > 100 | > 100 | > 100 | > 100 | > 100 | > 100 | > 100 | > 100 | > 100 |  |  |  |  |  |  |  |  |  | 
18 | COC(=O)CCCC1(CCCC(=O)OC)CCCCCCCCC(CCCC(=O)OC)(CCCC(=O)OC)C(=O)C1=O | > 100 | 55.3 | > 100 | > 100 | 88.7 | 47.9 | > 100 | > 100 | 47.6 | > 100 |  |  |  |  |  |  |  |  |  | 
19 | COC1=CC(=O)c2c(cc(COP(N)(=O)N(CCCl)CCCl)n2C)C1=O (stereo not drawn) | 2.82 | 2.34 | 5.02 | 5.9 | 4.45 | 3.41 | 4.31 | 5.61 | 2.66 | 4.73 |  |  |  |  |  |  |  |  |  | 
